Assay results reported in patent US4705777A, “Cationic oligopeptides having microbicidal activity” (priority 1985, dated 1987).

How the values were obtained:
[1] = test system: Staphylococcus aureus 502A; experiment: Bactericidal activity of human neutrophil peptides, S. aureus; assay type: cell-based; conditions: comparison to Table VI
[2] = test system: Cryptococcus neoformans C-384 (Type C); experiment: Antifungal assay of human neutrophil peptides; assay type: cell-based; conditions: comparison to Table VI
E. coli ML-35 = experiment: Bactericidal activity of human neutrophil peptides, E. coli ML-35; assay type: cell-based; conditions: comparison to Table VI
H. influenzae = experiment: Antibacterial action, % killing (Table II), H. influenzae; assay type: cell-based, Haemophilus influenzae; conditions: 50 μg/ml peptide, 10^7 bacterial cells/ml, 20 min, 37°
Experimental: (§1) To test antibacterial action of the polypeptides, the following protocol was employed. Various species at 10^7 bacterial cells/ml are incubated for 20 min at 37° with 50 μg/ml of the candidate peptide. Colony counts (viable organisms) are made at the outset of the incubation--beforeaddition of the candidate peptide--and after 20 min of incubation with the candidate peptide.

[3] = test system: Staphylococcus aureus 502A; experiment: Antibacterial activity of rabbit granulocyte peptides (Table III), S. aureus 502A; assay type: cell-based; conditions: 50 μg/ml, 20 min, 37° C., 10 mM sodium phosphate buffer pH 7.4
Experimental: (§2) The procedure parallels that reported in Lehrer et al., Infection and Immunity (1983) 42:10-14. […] The subculture was grown at 37° C. for 4 h with shaking to provide mid-logarithmic phase organisms that were washed twice with buffer by centrifugation (2000×g, 10 min), and then quantitated spectrophotometrically at 620 nm, with reference to previously established CFU/Optical Density relationships. Bacteria were suspended and experiments were performed in 10 mM sodium phosphate buffer, pH 7.4. In some experiments, buffers were supplemented with 0.14 M NaCl ("high" ionic strength). […] In some experiments, 10 mM phosphate buffer with a pH of 5.8 and conductivity of 1.36 mMHO was used. Peptide "stock solutions" were prepared at 500 μg/ml (microbiuret assay) in 0.01% acetic acid, and stored at -20° C. Typically, incubation mixtures contained 1×10^5 bacterial CFU and 5 μg of peptide in 100 μl of buffer. After incubation for 20 min at 37° C., 900 μl of the same buffer was added, and two additional serial tenfold dilutions were made with that buffer. Duplicate 100 μl aliquots from the three serial dilutions were spread over appropriate nutrient agar plates and incubated for 24-72 h to insure full colony development. Killing of microorganisms was expressed as the logarithm10 No /N, where No represented the initial colony count and N represented the colony count after incubation with peptide. There was no significant alteration in colony count when any of the test organisms were exposed to peptide-free buffer for 20 min.

[4] = test system: Streptococcus pneumoniae Type III; experiment: Antibacterial activity of rabbit granulocyte peptides (Table III), S. pneumoniae; assay type: cell-based; conditions: 50 μg/ml, 20 min, 37° C., 10 mM sodium phosphate buffer pH 7.4
Experimental: as §2

L. monocytogenes = experiment: Antibacterial action, % killing (Table II), L. monocytogenes; assay type: cell-based, Listeria monocytogenes; conditions: 50 μg/ml peptide, 10^7 bacterial cells/ml, 20 min, 37°
Experimental: as §1

[5] = test system: Streptococcus agalactiae Type-I-A; experiment: Antibacterial activity of rabbit granulocyte peptides (Table III), S. agalactiae Type-I-A; assay type: cell-based; conditions: 50 μg/ml, 20 min; for Bactericidal activity log10 No /N, Streptococcus agalactiae Type 1A, pH 5.8: 10 mM phosphate buffer pH 5.8; for Bactericidal activity log10 No /N, Streptococcus agalactiae Type-I-A: 37° C., 10 mM sodium phosphate buffer pH 7.4; for Bactericidal activity log10 No /N, Streptococcus agalactiae Type 1A, "High" ionic strength: buffer pH 7.4 supplemented with 0.14 M NaCl
Experimental: as §2

[6] = test system: Bordetella bronchiseptica UCLA-342; experiment: Antibacterial activity of rabbit granulocyte peptides (Table III), B. bronchiseptica; assay type: cell-based; conditions: 50 μg/ml, 20 min, 37° C., 10 mM sodium phosphate buffer pH 7.4
Experimental: as §2

[7] = test system: Klebsiella pneumoniae ATCC 13883; experiment: Antibacterial activity of rabbit granulocyte peptides (Table III), K. pneumoniae; assay type: cell-based; conditions: 50 μg/ml, 20 min; for Bactericidal activity log10 No /N, Klebsiella pneumoniae ATCC 13883, pH 5.8: 10 mM phosphate buffer pH 5.8; for Bactericidal activity log10 No /N, Klebsiella pneumoniae ATCC 13883: 37° C., 10 mM sodium phosphate buffer pH 7.4; for Bactericidal activity log10 No /N, Klebsiella pneumoniae ATCC 13883, "High" ionic strength: buffer pH 7.4 supplemented with 0.14 M NaCl
Experimental: as §2

K. pneumoniae = experiment: Antibacterial action, % killing (Table II), K. pneumoniae; assay type: cell-based, Klebsiella pneumoniae; conditions: 50 μg/ml peptide, 10^7 bacterial cells/ml, 20 min, 37°
Experimental: as §1

[8] = test system: Pseudomonas aeruginosa PAO 579; experiment: Antibacterial activity of rabbit granulocyte peptides (Table III), P. aeruginosa; assay type: cell-based; conditions: 50 μg/ml, 20 min; for Bactericidal activity log10 No /N, Pseudomonas aeruginosa PAO 579, pH 5.8: 10 mM phosphate buffer pH 5.8; for Bactericidal activity log10 No /N, Pseudomonas aeruginosa PAO 579: 37° C., 10 mM sodium phosphate buffer pH 7.4; for Bactericidal activity log10 No /N, Pseudomonas aeruginosa PAO 579, "High" ionic strength: buffer pH 7.4 supplemented with 0.14 M NaCl
Experimental: as §2

E. coli = experiment: Antibacterial action, % killing (Table II), E. coli; assay type: cell-based, Escherichia coli; conditions: 50 μg/ml peptide, 10^7 bacterial cells/ml, 20 min, 37°
Experimental: as §1

S. aureus 502A = experiment: Antibacterial action, % killing (Table II), S. aureus 502A; assay type: cell-based, Staphylococcus aureus; conditions: 50 μg/ml peptide, 10^7 bacterial cells/ml, 20 min, 37°
Experimental: as §1

S. albus = experiment: Antibacterial action, % killing (Table II), S. albus; assay type: cell-based, Staphylococcus albus; conditions: 50 μg/ml peptide, 10^7 bacterial cells/ml, 20 min, 37°
Experimental: as §1

[9] = test system: Hemophilus influenzae Type 3A; experiment: Antibacterial activity of rabbit granulocyte peptides (Table III), H. influenzae; assay type: cell-based; conditions: 50 μg/ml, 20 min, 37° C., 10 mM sodium phosphate buffer pH 7.4
Experimental: as §2

S. marscescens = experiment: Antibacterial action, % killing (Table II), S. marscescens; assay type: cell-based, Serratia marscescens; conditions: 50 μg/ml peptide, 10^7 bacterial cells/ml, 20 min, 37°
Experimental: as §1

[10] = test system: Listeria monocytogenes 450; experiment: Antibacterial activity of rabbit granulocyte peptides (Table III), L. monocytogenes; assay type: cell-based; conditions: 50 μg/ml, 20 min; for Bactericidal activity log10 No /N, Listeria monocytogenes 450, pH 5.8: 10 mM phosphate buffer pH 5.8; for Bactericidal activity log10 No /N, Listeria monocytogenes 450: 37° C., 10 mM sodium phosphate buffer pH 7.4; for Bactericidal activity log10 No /N, Listeria monocytogenes 450, "High" ionic strength: buffer pH 7.4 supplemented with 0.14 M NaCl
Experimental: as §2

[11] = test system: Staphylococcus aureus 566; experiment: Antibacterial activity of rabbit granulocyte peptides (Table III), S. aureus 566; assay type: cell-based; conditions: 50 μg/ml, 20 min, 37° C., 10 mM sodium phosphate buffer pH 7.4
Experimental: as §2

Serratia marcescens = experiment: Antibacterial activity of rabbit granulocyte peptides (Table III), S. marcescens; assay type: cell-based; conditions: 50 μg/ml, 20 min, 37° C., 10 mM sodium phosphate buffer pH 7.4
Experimental: as §2

[12] = test system: Streptococcus agalactiae Type IIIU; experiment: Antibacterial activity of rabbit granulocyte peptides (Table III), S. agalactiae Type IIIU; assay type: cell-based; conditions: 50 μg/ml, 20 min, 37° C., 10 mM sodium phosphate buffer pH 7.4
Experimental: as §2

[13] = test system: Staphylococcus aureus J.F.; experiment: Antibacterial activity of rabbit granulocyte peptides (Table III), S. aureus J.F.; assay type: cell-based; conditions: 50 μg/ml, 20 min, 37° C., 10 mM sodium phosphate buffer pH 7.4
Experimental: as §2

[14] = test system: Escherichia coli ATCC 29648; experiment: Antibacterial activity of rabbit granulocyte peptides (Table III), E. coli; assay type: cell-based; conditions: 50 μg/ml, 20 min, 37° C., 10 mM sodium phosphate buffer pH 7.4
Experimental: as §2

[15] = test system: Staphylococcus epidermidis UCLA-622; experiment: Antibacterial activity of rabbit granulocyte peptides (Table III), S. epidermidis; assay type: cell-based; conditions: 50 μg/ml, 20 min, 37° C., 10 mM sodium phosphate buffer pH 7.4
Experimental: as §2

Ps. aeruginosa = experiment: Antibacterial action, % killing (Table II), Ps. aeruginosa; assay type: cell-based, Pseudomonas aeruginosa; conditions: 50 μg/ml peptide, 10^7 bacterial cells/ml, 20 min, 37°
Experimental: as §1

Streptococcus Group B = experiment: Antibacterial action, % killing (Table II), Streptococcus Group B; assay type: cell-based; conditions: 50 μg/ml peptide, 10^7 bacterial cells/ml, 20 min, 37°
Experimental: as §1

Substance	Bactericidal activity log10 No /N, Staphylococcus aureus 502A [3]	Bactericidal activity log10 No /N, Streptococcus pneumoniae Type III [4]	% Killing, L. monocytogenes (L. monocytogenes)	Bactericidal activity log10 No /N, Streptococcus agalactiae Type 1A, pH 5.8 [5]	Bactericidal activity log10 No /N, Streptococcus agalactiae Type-I-A [5]	Bactericidal activity log10 No /N, Streptococcus agalactiae Type 1A, "High" ionic strength [5]	Bactericidal activity log10 No /N, Bordetella bronchiseptica UCLA-342 [6]	Bactericidal activity log10 No /N, Klebsiella pneumoniae ATCC 13883, pH 5.8 [7]	Bactericidal activity log10 No /N, Klebsiella pneumoniae ATCC 13883 [7]	Bactericidal activity log10 No /N, Klebsiella pneumoniae ATCC 13883, "High" ionic strength [7]	Bactericidal activity log10 No /N, Pseudomonas aeruginosa PAO 579, pH 5.8 [8]	Bactericidal activity log10 No /N, Pseudomonas aeruginosa PAO 579 [8]	Bactericidal activity log10 No /N, Pseudomonas aeruginosa PAO 579, "High" ionic strength [8]	% Killing, E. coli (E. coli)	% Killing, S. aureus 502A (S. aureus 502A)	% Killing, S. albus (S. albus)	Bactericidal activity log10 No /N, Hemophilus influenzae Type 3A [9]	Bactericidal activity log10 No /N, Listeria monocytogenes 450, pH 5.8 [10]	Bactericidal activity log10 No /N, Listeria monocytogenes 450 [10]	Bactericidal activity log10 No /N, Listeria monocytogenes 450, "High" ionic strength [10]	further results
asp cys tyr cys arg ile pro ala cys ile ala gly glu arg arg tyr gly thr cys ile tyr gln gly arg leu trp ala phe cys cys [HNP-3]	–	–	–	–	–	–	–	–	–	–	–	–	–	–	–	–	–	–	–	–	microbicidal activity compared with the other HNP, S. aureus 502A [1]: less microbicidal than the other oligopeptides; microbicidal activity compared with the other HNP, C. neoformans C-384 [2]: less microbicidal than the other oligopeptides; microbicidal activity compared with the other HNP, E. coli ML-35 (E. coli ML-35): less microbicidal than the other oligopeptides
gly ile cys ala cys arg arg arg phe cys pro asn ser glu arg phe ser gly tyr cys arg val asn gly ala arg tyr val arg cys cys ser arg arg [NP-3a]	0.0 log10	> 3.5 log10	D (<50% killing)	0.0 log10	0.6 log10	0.0 log10	0.1 log10	0.4 log10	2.4 log10	0.0 log10	0.1 log10	3.2 log10	0.1 log10	D (<50% killing)	D (<50% killing)	D (<50% killing)	> 1.1 log10	0.0 log10	0.2 log10	0.1 log10	% Killing, H. influenzae (H. influenzae): B (90-99% killing); % Killing, K. pneumoniae (K. pneumoniae): A (>99% killing); % Killing, S. marscescens (S. marscescens): C (50-90% killing); Bactericidal activity log10 No /N, Staphylococcus aureus 566 [11]: 1.3 log10; Bactericidal activity log10 No /N, Serratia marcescens (Serratia marcescens): 0.5 log10; Bactericidal activity log10 No /N, Streptococcus agalactiae Type IIIU [12]: 0.3 log10; Bactericidal activity log10 No /N, Staphylococcus aureus J.F. [13]: 0.4 log10; Bactericidal activity log10 No /N, Escherichia coli ATCC 29648 [14]: 0.6 log10; Bactericidal activity log10 No /N, Staphylococcus epidermidis UCLA-622 [15]: 1.3 log10; % Killing, Ps. aeruginosa (Ps. aeruginosa): A (>99% killing)
val val cys ala cys arg arg ala leu cys leu pro leu glu arg arg ala gly phe cys arg ile arg gly arg ile his pro leu cys cys arg arg [NP-2]	2.4 log10	> 3.5 log10	A (>99% killing)	0.1 log10	2.0 log10	0.1 log10	0.1 log10	0.5 log10	1.1 log10	0.0 log10	0.2 log10	3.2 log10	0.0 log10	B (90-99% killing)	D (<50% killing)	B (90-99% killing)	2.0 log10	0.1 log10	2.1 log10	0.2 log10	% Killing, Streptococcus Group B (Streptococcus Group B): C (50-90% killing); Bactericidal activity log10 No /N, Staphylococcus aureus 566 [11]: > 4.1 log10; Bactericidal activity log10 No /N, Serratia marcescens (Serratia marcescens): 1.0 log10; Bactericidal activity log10 No /N, Streptococcus agalactiae Type IIIU [12]: 2.9 log10; Bactericidal activity log10 No /N, Staphylococcus aureus J.F. [13]: 2.9 log10; Bactericidal activity log10 No /N, Escherichia coli ATCC 29648 [14]: 0.8 log10; Bactericidal activity log10 No /N, Staphylococcus epidermidis UCLA-622 [15]: > 4.1 log10; % Killing, Ps. aeruginosa (Ps. aeruginosa): A (>99% killing)
